Activity calls are given as the source filed them.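 Rule for the calls: active = compounds whose thermal stabilization response of the kinase is above zero; inactive = the rest.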

Chain of Beta-adrenergic receptor kinase 1 (Homo sapiens) (P25098 whole entry, looked up): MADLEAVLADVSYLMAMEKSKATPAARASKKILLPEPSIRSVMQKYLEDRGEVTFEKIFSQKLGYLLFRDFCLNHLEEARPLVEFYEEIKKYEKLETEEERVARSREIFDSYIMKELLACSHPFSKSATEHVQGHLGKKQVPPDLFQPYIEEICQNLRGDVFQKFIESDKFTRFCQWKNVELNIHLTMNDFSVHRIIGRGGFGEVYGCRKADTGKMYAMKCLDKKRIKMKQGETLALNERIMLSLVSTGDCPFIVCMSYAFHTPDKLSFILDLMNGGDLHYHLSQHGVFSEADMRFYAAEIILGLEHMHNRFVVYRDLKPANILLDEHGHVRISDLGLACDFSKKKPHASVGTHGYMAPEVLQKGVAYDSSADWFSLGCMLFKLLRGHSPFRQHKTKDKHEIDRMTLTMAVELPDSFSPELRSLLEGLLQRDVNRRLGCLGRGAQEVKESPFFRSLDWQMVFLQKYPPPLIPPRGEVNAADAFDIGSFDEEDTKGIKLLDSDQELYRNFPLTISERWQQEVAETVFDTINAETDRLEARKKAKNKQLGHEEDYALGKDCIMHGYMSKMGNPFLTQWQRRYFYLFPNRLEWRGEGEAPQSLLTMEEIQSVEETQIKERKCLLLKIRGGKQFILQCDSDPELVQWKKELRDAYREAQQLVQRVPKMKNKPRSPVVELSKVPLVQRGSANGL

This experiment has as its target Beta-adrenergic receptor kinase 1 (Homo sapiens) (UniProt P25098). Put plainly: direct GRK2 binders by thermal shift, late-stage follow-up, orthogonal assay for GRK2 aptamer-displacement inhibitor project, biophysical, Thermofluor, set 2 (AID 588468). Conditions: purified GRK2 thermal shift, ANS fluorescence; at 200 µM; hits give high values. (Differential scanning fluorimetry follows unfolding on heating by fluorescence.)
On to `C#CCSc1nc2sc3c(c2c(=O)n1C)CCC3`, for which the thermal stabilization response is 21.3%.

For `O=C(CN1CCc2ccccc21)NC(=O)NCc1ccccc1`, the thermal stabilization response was 25.7%.

In the case of `COc1ccc(Cl)cc1NC(=O)CCS(=O)(=O)c1ccc(Br)cc1`, the thermal stabilization response is -601% (inactive).

Turning to `O=C(CCS(=O)(=O)c1ccc(Br)cc1)NCc1cccs1`, the thermal stabilization response was -152% (inactive).

Consider `Cc1cc2ccccc2n1CCNC(=O)C(C)Oc1ccccc1` (stereo not drawn), for which the thermal stabilization response was -116% (inactive).

Consider `COc1ccc([N+](=O)[O-])cc1NC(=O)CCS(=O)(=O)c1ccc(Br)cc1`, for which the thermal stabilization response is -85.1% (inactive).

Take `O=C(CCS(=O)(=O)c1ccc(Br)s1)Nc1ccccc1Br`: the thermal stabilization response is -73.1% (inactive).

Consider `COC(=O)c1ccccc1NC(=O)CCS(=O)(=O)c1ccc(Br)s1`, for which the thermal stabilization response is -184% (inactive).

For the compound `COC(=O)c1ccc(NC(=O)CCS(=O)(=O)c2ccc(Br)cc2)cc1`, the thermal stabilization response was -62.8% (inactive).

With `Cc1ccccc1NC(=O)CCS(=O)(=O)c1ccc(Br)s1`, the thermal stabilization response was 116%.

With `Cc1ccc(CCNC(=O)CCS(=O)(=O)c2ccc(Br)cc2)cc1`, the thermal stabilization response is 1.04%.

Take `O=C(O)Cc1ccc(-n2cccc2)cc1`: the thermal stabilization response is -127% (inactive).

With `CCOc1ccc(NC(=O)CCS(=O)(=O)c2ccc(Br)cc2)cc1`, the thermal stabilization response is -25.9% (inactive).

In the case of `CC(CS(=O)(=O)c1ccc2c(c1)NC(=O)CS2)C(=O)NCc1ccccc1Cl` (stereo not drawn), the thermal stabilization response is -20.4% (inactive).

In the case of `CCN(CC)c1ccc(NC(=O)CCS(=O)(=O)c2ccc(Br)cc2)c(C)c1`, the thermal stabilization response was 72%.

Take `COc1ccc(CCNC(=O)CCS(=O)(=O)c2ccc(Br)cc2)cc1OC`: the thermal stabilization response is -74.6% (inactive).

With `CCOc1ccccc1NC(=O)CCS(=O)(=O)c1ccc(Br)cc1`, the thermal stabilization response was -16.1% (inactive).

As to `NS(=O)(=O)c1ccc(CCNC(=O)CCS(=O)(=O)c2ccc(Br)cc2)cc1`, the thermal stabilization response is -107% (inactive).

As for `O=C(CCS(=O)(=O)c1ccc(Br)cc1)Nc1ccc(Br)cc1F`, the thermal stabilization response is -34.7% (inactive).

With `COc1ccc(NC(=O)CCS(=O)(=O)c2ccc(Br)s2)cc1`, the thermal stabilization response was -93.6% (inactive).

Turning to `O=C(CSc1nc2ccccc2c(=O)n1-c1ccccc1)NC(=O)CN1CCCC1=O`, the thermal stabilization response is -62% (inactive).

With `CC(=O)N1CCN(Cc2nc3cc(Cl)ccc3c(=O)[nH]2)CC1`, the thermal stabilization response is -41.4% (inactive).

For the compound `Cc1cccc(CCNC(=O)CCS(=O)(=O)c2ccc(Br)cc2)c1`, the thermal stabilization response is 44.5%.

For the origin of these results see PubChem BioAssay AID588468 (NMMLSC, 2011).
